Results as given in US6643591B1, “Use of computational and experimental data to model organic compound reactivity in cytochrome P450 mediated reactions and to optimize the design of pharmaceuticals” (University of Pittsburgh, priority 1998, dated 2003).

Molecular target: T1, CYP2C8 (Homo sapiens, UniProt P10632)
T1 sequence (P10632 1-490): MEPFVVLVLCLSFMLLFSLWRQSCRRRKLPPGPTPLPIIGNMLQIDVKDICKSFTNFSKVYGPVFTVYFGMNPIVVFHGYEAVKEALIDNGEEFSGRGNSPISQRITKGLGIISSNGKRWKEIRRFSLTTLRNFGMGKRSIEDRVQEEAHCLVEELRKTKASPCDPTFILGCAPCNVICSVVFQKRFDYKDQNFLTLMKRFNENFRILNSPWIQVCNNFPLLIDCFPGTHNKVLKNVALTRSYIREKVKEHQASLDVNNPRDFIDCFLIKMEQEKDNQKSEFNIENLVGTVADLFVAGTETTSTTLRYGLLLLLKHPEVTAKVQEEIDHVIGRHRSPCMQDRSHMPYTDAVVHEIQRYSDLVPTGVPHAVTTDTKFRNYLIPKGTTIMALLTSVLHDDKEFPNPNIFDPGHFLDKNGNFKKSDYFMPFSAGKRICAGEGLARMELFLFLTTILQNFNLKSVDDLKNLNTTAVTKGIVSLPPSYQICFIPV
Test: in vitro
Conditions: pH 7.4

Structure (SMILES): COc1ccccc1C [o-Methylanisole, o-methylanisole]
- selectivity ratio: 1
